Measured values: ChEMBL document CHEMBL3228009, “Hypobetalipoproteinemic agents. 2. Compounds related to 4-(1-adamantyloxy)aniline” (J Med Chem, 1979)

What was measured:
Rattus norvegicus [1] = test: Hypobetalipoproteinemic activity in diet-induced hypercholesteremic rat model assessed as decrease in total serum cholesterol at 50 mg/kg, po relative to control; type: functional
Rattus norvegicus [2] = organism: Rattus norvegicus; test: Selectivity ratio of T/C for heparin precipitating lipoproteins to T/C for total serum cholesterol in diet-induced hypercholesteremic rat model; type: functional
Rattus norvegicus [3] = test: Toxicity in diet-induced hypercholesteremic rat model assessed as increase in food intake at 50 mg/kg, po relative to control; type: organism-based; parameters: dose 50 mg/kg, route oral; settings: in vivo
Rattus norvegicus [4] = test: Toxicity in diet-induced hypercholesteremic rat model assessed as increase in body weight at 50 mg/kg, po relative to control; type: organism-based; parameters: dose 50 mg/kg, route oral; settings: in vivo
Rattus norvegicus [5] = test: Hypobetalipoproteinemic activity in diet-induced hypercholesteremic rat model assessed as decrease in heparin precipitating lipoproteins at 50 mg/kg, po relative to control; type: functional

Structure (SMILES)	T/C (Rattus norvegicus [1])	Selectivity ratio (Rattus norvegicus [2])	Activity (Rattus norvegicus [3]) [%]	Activity (Rattus norvegicus [4]) [%]	T/C (Rattus norvegicus [5])
Cl.Nc1ccc(C23CC4CC(CC(C4)C2)C3)cc1	1.41	0.99	> 73	> 63	1.4
Cc1cc(N)ccc1OC12CC3CC(CC(C3)C1)C2.Cl	0.52	0.6	> 73	< 63	0.31
Fc1cc(N2CCCC2)ccc1OC12CC3CC(CC(C3)C1)C2	0.8	1.02	> 73	> 63	0.82
CN(C=O)c1ccc(OC23CC4CC(CC(C4)C2)C3)cc1	0.51	0.72	> 73	> 63	0.36
CN(CCOc1ccccc1)c1ccc(OC23CC4CC(CC(C4)C2)C3)cc1	1.03	1.03	> 73	> 63	1.06
C#CCN(C)c1ccc(OC23CC4CC(CC(C4)C2)C3)cc1.Cl	0.57	1.05	> 73	> 63	0.6
CNC(=O)Nc1ccc(OC23CC4CC(CC(C4)C2)C3)cc1	1.06	0.91	> 73	> 63	0.96
Cc1cc(OC23CC4CC(CC(C4)C2)C3)cc(C)c1N	0.77	0.93	> 73	> 63	0.72
Cl.Nc1ccc(CC23CC4CC(CC(C4)C2)C3)cc1	0.45	0.5	> 73	> 63	0.23
Nc1ccc(SC23CC4CC(CC(C4)C2)C3)cc1	0.51	0.87	> 73	> 63	0.45
Cc1cc(N)cc(C)c1OC12CC3CC(CC(C3)C1)C2.Cl	0.86	0.93	> 73	> 63	0.8
Cl.Nc1ccccc1CC12CC3CC(CC(C3)C1)C2	0.86	1.03	> 73	> 63	0.89
